Results: patent US10561145B2, “Fused bicyclic heterocycle derivatives as pesticides” (Bayer CropScience Aktiengesellschaft, priority 2016, dated 2020)
Read-outs that look alike come from different tables or passages of the source.

How the values were obtained:
[1] = log P by HPLC on a reversed-phase column (C18), EEC Directive 79/831 Annex V.A8; assay type: physicochemical; settings: 55° C.
Experimental: The log P values are measured according to EEC Directive 79/831 Annex V.A8 by HPLC (high-performance liquid chromatography) on a reversed-phase column (C18). Temperature: 55° C. The LC-MS determination in the acidic range is carried out at pH 2.7 using the mobile phases 0.1% aqueous formic acid and acetonitrile (contains 0.1% formic acid); linear gradient from 10% acetonitrile to 95% acetonitrile. Called log P (HCOOH) or log P[a] in the table. The LC-MS determination in the neutral range is carried out at pH 7.8 using the mobile phases 0.001 molar aqueous ammonium bicarbonate solution and acetonitrile; linear gradient from 10% acetonitrile to 95% acetonitrile. Called log P (neutral) or log P[n] in the table. Calibration is carried out using unbranched alkan-2-ones (having 3 to 16 carbon atoms) with known log P values (log P values determined on the basis of the retention times by linear interpolation between two successive alkanones).

Phaedon cochleariae = Phaedon cochleariae - spray test; assay type: in vivo; settings: application rate 100 g/ha, after 7 days, sprayed Chinese cabbage leaf discs, mustard beetle larvae
Experimental: Phaedon cochleariae—Spray Test
Solvent: 78.0 parts by weight of acetone • • 1.5 parts by weight of dimethylformamide
Emulsifier: alkylaryl polyglycol ether
To produce a suitable active compound preparation, 1 part by weight of active compound is dissolved with the specified parts by weight of solvent and made up with water containing an emulsifier concentration of 1000 ppm until the desired concentration is attained. To produce further test concentrations, the formulation is diluted with emulsifier-containing water.
Discs of Chinese cabbage leaves (Brassica pekinensis) are sprayed with an active compound formulation of the desired concentration and, after drying, populated with larvae of the mustard beetle (Phaedon cochleariae).
After 7 days, the efficacy in % is determined. 100% means that all the beetle larvae have been killed; 0% means that no beetle larvae have been killed.

Myzus persicae [2] = assay: Myzus persicae - spray test; assay type: in vivo; settings: application rate 20 g/ha, after 5 days, sprayed Chinese cabbage leaf discs, all stages of green peach aphid
Experimental: Myzus persicae—Spray Test Solvent: 78 parts by weight of acetone • • 1.5 parts by weight of dimethylformamide Emulsifier: alkylaryl polyglycol ether To produce a suitable active compound preparation, 1 part by weight of active compound is dissolved with the specified parts by weight of solvent and made up with water containing an emulsifier concentration of 1000 ppm until the desired concentration is attained. To produce further test concentrations, the formulation is diluted with emulsifier-containing water. Discs of Chinese cabbage leaves (Brassica pekinensis) infested by all stages of the green peach aphid (Myzus persicae) are sprayed with an active compound formulation of the desired concentration. After 5 days, the efficacy in % is determined. 100% means that all the aphids have been killed; 0% means that no aphids have been killed.

Myzus persicae [3] = assay: Myzus persicae - oral test; assay type: in vivo; settings: application rate 4 ppm, after 5 days, green peach aphids, mixed population, oral uptake
Experimental: Myzus persicae—Oral Test Solvent: 100 parts by weight of acetone To produce a suitable preparation of active compound, 1 part by weight of active compound is dissolved using the specified parts by weight of solvent and made up with water until the desired concentration is attained. 50 μl of the active compound preparation are transferred into microtitre plates and made up to a final volume of 200 μl with 150 μl of IPL41 insect medium (33%+15% sugar). Subsequently, the plates are sealed with parafilm, which a mixed population of green peach aphids (Myzus persicae) within a second microtitre plate is able to puncture and imbibe the solution through it. After 5 days, the efficacy in % is determined. 100% means that all the aphids have been killed; 0% means that no aphids have been killed.

[4] = acidic range, pH 2.7, 0.1% aqueous formic acid/acetonitrile gradient, read-out: log P[a] (log P (HCOOH))
[5] = neutral range, pH 7.8, 0.001 molar aqueous ammonium bicarbonate/acetonitrile gradient, read-out: log P[n] (log P (neutral))

Row | Compound | chromatographic logP [1, 4] | chromatographic logP [1, 5] | efficacy in % (beetle larvae killed) (Phaedon cochleariae) | efficacy in % (aphids killed) (Myzus persicae [2]) | efficacy in % (aphids killed) (Myzus persicae [3])
1 | CCS(=O)(=O)c1c(-c2nc3cc(C(F)(F)F)cnc3n2C)ncc2ccsc12 [Example I-4] | 2.88 | 2.82 | 100% | 90% | 100%
2 | CCSc1c(-c2nc3cc(C(F)(F)F)ncc3n2C)ncc2ccsc12 [Example I-6] | 2.95 | 2.85 | – | – | –
3 | CCSc1c(-c2nc3cc(C(F)(F)F)cnc3n2C)ncc2ncsc12 [Example I-3, 7-(Ethylsulfanyl)-6-[3-methyl-6-(trifluoromethyl)-3H-imidazo[4,5-b]pyridin-2-yl][1,3]thiazolo[4,5-c]pyridine] | 2.96 | 2.94 | – | – | –
4 | CCS(=O)(=O)c1c(-c2nc3cc(C(F)(F)F)ncc3n2C)ncc2ccsc12 [Example I-5] | 2.53 | 2.4 | – | 90% | –
5 | CC[S+]([O-])c1c(-c2nc3cc(C(F)(F)F)cnc3n2C)ncc2ncsc12 (centres unmarked) [Example I-2, 7-(Ethylsulfinyl)-6-[3-methyl-6-(trifluoromethyl)-3H-imidazo[4,5-b]pyridin-2-yl][1,3]thiazolo[4,5-c]pyridine] | 3.09 | 2.98 | – | – | –
6 | CCS(=O)(=O)c1c(-c2nc3cc(C(F)(F)F)cnc3n2C)ncc2ncsc12 [Example I-1, 7-(Ethylsulfonyl)-6-[3-methyl-6-(trifluoromethyl)-3H-imidazo[4,5-b]pyridin-2-yl][1,3]thiazolo[4,5-c]pyridine] | 2.6 | 2.53 | 83% | 90% | 100%

Further lines, with some results ahead:

Row | chromatographic logP [1, 4] | chromatographic logP [1, 5] | Compound | efficacy in % (beetle larvae killed) (Phaedon cochleariae) | efficacy in % (aphids killed) (Myzus persicae [2]) | efficacy in % (aphids killed) (Myzus persicae [3])
7 | 2.3 | 2.28 | CCS(=O)(=O)c1c(-c2nc3cc(C(F)(F)F)ncc3n2C)ncc2sccc12 [Example I-8] | – | 100% | 100%
8 | 0.88 | – | CCSc1c(C(=O)O)ncc2ncsc12 [XLI-1, 7-(Ethylsulfanyl)[1,3]thiazolo[4,5-c]pyridine-6-carboxylic acid] | – | – | –
9 | 2.58 | 2.57 | CCOC(=O)c1ncc2ncsc2c1OS(=O)(=O)C(F)(F)F [XXXIV-1, Ethyl 7-{[(trifluoromethyl)sulfonyl]oxy}[1,3]thiazolo[4,5-c]pyridine-6-carboxylate] | – | – | –
10 | 2.56 | 2.72 | CCS(=O)(=O)c1c(-c2nc3cc(C(F)(F)F)cnc3n2C)ncc2sccc12 [Example I-7] | – | 100% | 100%
11 | 2.23 | 2.17 | CCOC(=O)c1ncc2ncsc2c1SCC [XL-1, Ethyl 7-(ethylsulfanyl)[1,3]thiazolo[4,5-c]pyridine-6-carboxylate] | – | – | –
